The target of one assay is T1, PI3Kα (Homo sapiens, UniProt P42336).
T1 construct: made in house; host or cells: SF9 cells
Nature of the assay: PI3 Kinase alpha TR-FRET assay. The assay is classed as biochemical. The protocol: Compound inhibition for PI3Kα was determined in a homogeneous TR-FRET assay using a PI3Kα assay kit (Millipore, US, Catalog #33-016). The PI3 kinase catalyzes phosphorylation of […] (PIP2) to phosphatidylinositol 3,4,5-trisphosphate (PIP3) in the presence of ATP and Mg^2+. The PIP3 product is detected by displacement of biotin-PIP3 from an energy transfer complex consisting of Europium labeled anti-GST monoclonal antibody, a GST-tagged pleckstrin homology (PH) domain, biotinylated PIP3 and Streptavidin-Allophycocyanin (APC). Excitation of Europium in the complex results in an energy transfer to the APC and a fluorescence emission at 665 nm.
Compounds tested were dissolved in DMSO and directly distributed into 384-well plates at a volume of 0.5 μL. P110/P85a/PIP2 mixture (14.5 μL) was added to compound wells and incubated for 30 min at rt […]. P110/P85a was expressed in SF9 cells and purified in-house. 5 ng P110/P85a was used in the assay. The kinase reaction was started by the addition of ATP. The assay concentrations of both PIP2 and ATP were 40 μM. The reaction mixture was incubated for 30 min and was terminated by the addition of stop mix and detection mix. Fluorescence was measured at 615 and 665 nm upon excitation at 340 nm in a Victor V5 fluorometer (Perkin Elmer, US). The fluorescence emission ratio at 665 to 615 nm, proportional to the kinase activity, was plotted against the compound concentration to generate dose-response curves and IC50 values were determined.

In a further assay the test system is pERK in A375 cells. Kind of assay: In Cell Western (ICW) assay, pERK in A375 cells. It counts as cell-based. The settings on record: Homo sapiens, A-375, 3 h treatment. The procedure, abridged:
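After a 3 h compound treatment at 37 °C, fixed RKO or A375 cells were probed for phospho-ERK1/2 (T202/Y204), phospho-S6RP or phospho-AKT T308 and detected with a Eu-tagged anti-rabbit antibody (ex 340/em 615 nm), with Hoechst signal as the cell-number correction. Inhibition was referenced to DMSO, and IC50 values came from sigmoidal dose-response curves.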

For a further assay, the target named is T2, B-RAFV600E (Homo sapiens, UniProt P15056, V600E).
T2 construct: purchased Millipore, USA 14-557
Nature of the assay: B-RAFV600E radiometric assay. It counts as biochemical. The settings on record: read-out: Kinase assay B-Raf. In short, it runs like this: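 B-RAFV600E was preincubated 45 min at rt with compound in 1% DMSO. MEK-K97M (0.5 μg), 5 μM final cold ATP and [γ-32P]ATP were then added for 2 h at rt. Phosphorylated MEK was captured on P81 paper and scintillation-counted; IC50 came from a sigmoidal dose-response fit.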

The subject of another assay is RKO cells. Kind of assay: XTT assay for cell viability, RKO cells. The assay is classed as cell-based. As to conditions: Homo sapiens, 72 h. How it is done:
Cell lines (A375 ATCC No. CRL-1619, A2058 ATCC No. CRL-11147 and RKO ATCC No. CRL-2577, American Type Culture Collection (ATCC), Manassas Va.) once attaining ˜80% confluency were trypsinized, centrifuged and resuspended in fresh media. Cells (1000-2000/per well) were seeded in 96-well plate and incubated over-night at 37° C. in a 5% CO2 incubator. Compound dilutions were prepared in 100% DMSO followed by dilutions in the respective media. The cells were treated with NCEs for 72 h at 37° C. in 5% CO2 incubator. After 72 h, freshly prepared XTT (1 mg/ml)/PMS (25 μM) solution was added, incubated for 2 to 3 h at 37° C. and the absorbance was measured at 450 nm using an ELISA plate reader. Keeping DMSO control as 100%, the effect of the compound to inhibit the cell proliferation was calculated and the GI50 values were determined using sigmoidal dose response curve fit in GraphPad Prism® v5 software.
On the technique in general: Tetrazolium dyes change colour on reduction, which living cells bring about.

The next assay deals with A375 cells. Kind of assay: XTT assay for cell viability, A375 cells. The assay is classed as cell-based. As to conditions: Homo sapiens, A-375, 72 h. In short, it runs like this:
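GI50 derived by sigmoidal dose-response fitting of proliferation normalised to DMSO control (100%). Readout: A450 after 2-3 h with XTT (1 mg/ml)/PMS (25 μM), following 72 h compound treatment at 37° C., 5% CO2 of cells plated at 1000-2000 per well the previous day.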

For a further assay, the target named is T3, mTOR kinase (Homo sapiens, UniProt P42345).
T3 construct: purchased Millipore, US
Nature of the assay: mTOR kinase TR-FRET assay. The assay is classed as biochemical. The procedure, abridged: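 TR-FRET with ULight-p70 S6K (Thr 389) peptide (50 nM) and 20 μM ATP in 50 mM HEPES pH 7.5, 1 mM EGTA, 3 mM MnCl2; compound pre-incubated with enzyme before substrate addition, reaction at rt, EDTA-stopped. Eu anti-phospho antibody read 665/615 nm; IC50 from sigmoidal dose-response fit.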

T3 sequence (P42345 1362-2549 limits assumed): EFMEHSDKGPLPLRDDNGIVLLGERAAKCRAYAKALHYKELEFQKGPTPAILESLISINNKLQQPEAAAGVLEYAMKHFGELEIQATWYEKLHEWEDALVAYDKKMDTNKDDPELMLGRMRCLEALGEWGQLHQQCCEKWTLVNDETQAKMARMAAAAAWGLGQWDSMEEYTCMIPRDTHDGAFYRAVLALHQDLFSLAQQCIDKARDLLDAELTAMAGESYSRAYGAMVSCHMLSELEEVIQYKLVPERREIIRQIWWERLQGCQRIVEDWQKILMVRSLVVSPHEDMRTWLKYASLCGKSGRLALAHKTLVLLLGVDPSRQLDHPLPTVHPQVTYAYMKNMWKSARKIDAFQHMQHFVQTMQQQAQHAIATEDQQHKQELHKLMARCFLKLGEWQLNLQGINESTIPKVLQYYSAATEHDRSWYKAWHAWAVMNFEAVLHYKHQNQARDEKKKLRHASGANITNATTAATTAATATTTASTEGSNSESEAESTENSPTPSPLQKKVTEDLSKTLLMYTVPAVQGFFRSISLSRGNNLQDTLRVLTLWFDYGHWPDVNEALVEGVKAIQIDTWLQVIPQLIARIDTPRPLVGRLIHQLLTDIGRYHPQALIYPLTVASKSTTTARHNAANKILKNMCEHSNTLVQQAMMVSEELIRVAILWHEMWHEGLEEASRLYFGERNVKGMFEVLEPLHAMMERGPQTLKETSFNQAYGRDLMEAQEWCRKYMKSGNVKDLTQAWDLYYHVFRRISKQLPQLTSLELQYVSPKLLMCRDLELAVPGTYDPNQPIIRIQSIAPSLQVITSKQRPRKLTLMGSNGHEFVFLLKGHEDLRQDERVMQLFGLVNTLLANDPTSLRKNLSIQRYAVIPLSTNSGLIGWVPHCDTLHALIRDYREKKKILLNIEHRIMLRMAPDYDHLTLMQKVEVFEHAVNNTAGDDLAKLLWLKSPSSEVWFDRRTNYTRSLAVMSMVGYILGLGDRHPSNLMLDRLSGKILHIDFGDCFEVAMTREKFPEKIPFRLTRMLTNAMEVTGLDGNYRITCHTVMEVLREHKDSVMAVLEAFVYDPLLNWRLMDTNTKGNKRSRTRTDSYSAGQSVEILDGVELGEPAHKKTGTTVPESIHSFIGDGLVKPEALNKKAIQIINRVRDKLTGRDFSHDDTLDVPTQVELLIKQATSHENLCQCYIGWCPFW
T1 sequence (P42336 whole entry, species assumed): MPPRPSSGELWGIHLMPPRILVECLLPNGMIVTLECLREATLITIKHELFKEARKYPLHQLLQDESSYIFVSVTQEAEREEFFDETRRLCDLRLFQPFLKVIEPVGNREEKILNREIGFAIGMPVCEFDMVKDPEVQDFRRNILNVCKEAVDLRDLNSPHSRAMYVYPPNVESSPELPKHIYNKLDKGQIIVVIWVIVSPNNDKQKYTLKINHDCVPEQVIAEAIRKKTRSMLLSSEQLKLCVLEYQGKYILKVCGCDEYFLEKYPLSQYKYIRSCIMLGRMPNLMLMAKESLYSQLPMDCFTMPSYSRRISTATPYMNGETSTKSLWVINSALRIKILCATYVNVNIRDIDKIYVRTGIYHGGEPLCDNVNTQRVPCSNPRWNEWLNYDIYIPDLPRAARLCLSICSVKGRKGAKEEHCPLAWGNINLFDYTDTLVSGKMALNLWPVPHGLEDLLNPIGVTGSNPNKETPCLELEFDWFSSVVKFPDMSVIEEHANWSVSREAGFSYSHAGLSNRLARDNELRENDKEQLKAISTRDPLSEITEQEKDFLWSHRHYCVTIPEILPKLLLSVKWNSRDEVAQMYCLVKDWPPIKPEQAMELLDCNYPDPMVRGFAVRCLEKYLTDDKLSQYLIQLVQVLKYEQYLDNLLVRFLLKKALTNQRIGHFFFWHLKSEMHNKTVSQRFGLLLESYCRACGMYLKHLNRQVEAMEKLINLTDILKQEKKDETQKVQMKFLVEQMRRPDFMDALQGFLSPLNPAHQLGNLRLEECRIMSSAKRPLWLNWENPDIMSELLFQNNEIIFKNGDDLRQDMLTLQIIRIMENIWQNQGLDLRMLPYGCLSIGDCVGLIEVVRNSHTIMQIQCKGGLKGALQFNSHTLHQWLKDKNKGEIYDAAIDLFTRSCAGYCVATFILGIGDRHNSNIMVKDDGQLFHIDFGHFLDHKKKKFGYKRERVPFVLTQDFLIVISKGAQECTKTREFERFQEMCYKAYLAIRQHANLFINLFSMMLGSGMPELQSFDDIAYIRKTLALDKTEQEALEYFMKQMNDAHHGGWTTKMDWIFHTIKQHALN
T1 sequence (P27986 whole entry partner, species assumed): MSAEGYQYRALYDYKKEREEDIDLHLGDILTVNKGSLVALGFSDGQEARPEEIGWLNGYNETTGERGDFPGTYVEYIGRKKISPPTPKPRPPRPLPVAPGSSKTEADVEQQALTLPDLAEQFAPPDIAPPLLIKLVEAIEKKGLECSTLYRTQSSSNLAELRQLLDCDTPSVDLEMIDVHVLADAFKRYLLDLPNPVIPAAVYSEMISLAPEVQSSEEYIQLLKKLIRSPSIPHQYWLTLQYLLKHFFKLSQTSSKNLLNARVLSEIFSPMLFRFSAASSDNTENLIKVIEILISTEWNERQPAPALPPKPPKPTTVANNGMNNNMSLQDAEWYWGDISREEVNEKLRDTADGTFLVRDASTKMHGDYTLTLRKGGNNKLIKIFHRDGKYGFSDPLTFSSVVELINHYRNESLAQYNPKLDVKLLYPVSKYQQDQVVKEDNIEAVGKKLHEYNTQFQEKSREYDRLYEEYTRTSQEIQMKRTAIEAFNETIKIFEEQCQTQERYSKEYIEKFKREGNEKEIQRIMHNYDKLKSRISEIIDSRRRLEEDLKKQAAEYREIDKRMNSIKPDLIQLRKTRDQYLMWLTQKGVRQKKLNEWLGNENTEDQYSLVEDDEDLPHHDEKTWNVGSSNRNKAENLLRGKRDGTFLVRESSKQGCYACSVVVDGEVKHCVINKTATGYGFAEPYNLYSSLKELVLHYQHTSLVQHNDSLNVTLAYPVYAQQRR
T2 sequence (P15056 416-766 V600E limits assumed): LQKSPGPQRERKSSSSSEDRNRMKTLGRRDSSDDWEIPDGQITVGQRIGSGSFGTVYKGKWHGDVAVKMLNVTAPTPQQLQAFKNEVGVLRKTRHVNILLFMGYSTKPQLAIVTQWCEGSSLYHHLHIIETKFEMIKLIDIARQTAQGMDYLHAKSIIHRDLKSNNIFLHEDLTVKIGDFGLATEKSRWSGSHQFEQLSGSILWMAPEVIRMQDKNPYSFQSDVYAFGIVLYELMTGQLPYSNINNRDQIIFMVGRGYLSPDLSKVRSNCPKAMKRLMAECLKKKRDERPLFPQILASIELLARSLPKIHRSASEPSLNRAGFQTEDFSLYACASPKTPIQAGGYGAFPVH

Take `COc1cc(-c2cccc(NS(=O)(=O)CCCF)c2F)cc2c(N3CCOCC3)nc(-c3cnc(N)cc3C(F)(F)F)nc12` [Example 36, N-(3-(2-(6-amino-4-(trifluoromethyl)pyridin-3-yl)-8-methoxy-4-morpholinoquinazolin-6-yl)-2-fluorophenyl)-3-fluoropropane-1-sulfonamide]: the IC50 on PI3Kα lay within 100 to 1000 nM; in the assay with pERK in A375 cells it was 1 to 100 nM; on B-RAFV600E, 1 to 100 nM; in the assay on RKO cells it was 1000 to 10000 nM; in the assay on A375 cells, 100 to 1000 nM.
`Nc1ccc(-c2nc(N3CCOCC3)c3cc(-c4cccc(NS(=O)(=O)CCCF)c4F)cc(OC4CCCC4)c3n2)cn1` [Example 53, N-(3-(2-(6-aminopyridin-3-yl)-8-(cyclopentyloxy)-4-morpholinoquinazolin-6-yl)-2-fluorophenyl)-3-fluoropropane-1-sulfonamide]: the IC50 fell in the range of 1 to 100 nM with pERK in A375 cells; 1 to 100 nM against mTOR kinase; 1 to 100 nM at B-RAFV600E; 100 to 1000 nM with RKO cells; 1 to 100 nM in the assay on A375 cells.
Turning to `Cc1cc(-c2cccc(NS(=O)(=O)CCCF)c2F)cc2c(N3CCOCC3)nc(-c3ccc(N)nc3)nc12` [Example 117, N-(3-(2-(6-aminopyridin-3-yl)-8-methyl-4-morpholinoquinazolin-6-yl)-2-fluorophenyl)-3-fluoropropane-1-sulfonamide], the IC50 in the assay on pERK in A375 cells was 1 to 100 nM; on mTOR kinase, 1 to 100 nM; at B-RAFV600E, 1 to 100 nM; in the assay with RKO cells, 1000 to 10000 nM; in the assay with A375 cells, 100 to 1000 nM.
As for `CC(C)Nc1ccc(-c2nc(N3CCOCC3)c3nc(-c4cccc(NS(=O)(=O)CCCF)c4F)ccc3n2)cn1` [Example 114, 3-fluoro-N-(2-fluoro-3-(2-(6-(isopropylamino)pyridin-3-yl)-4-morpholinopyrido[3,2-d]pyrimidin-6-yl)phenyl)propane-1-sulfonamide], the IC50 was 1 to 100 nM in the assay on pERK in A375 cells; 100 to 1000 nM at mTOR kinase; 1 to 100 nM on B-RAFV600E; 100 to 1000 nM in the assay on RKO cells; 100 to 1000 nM in the assay on A375 cells.
In the case of `CNc1ccc(-c2nc(N3CCOCC3)c3cc(-c4cccc(NS(=O)(=O)CCCF)c4F)cc(OC)c3n2)cn1` [Example 50, 3-fluoro-N-(2-fluoro-3-(8-methoxy-2-(6-(methylamino)pyridin-3-yl)-4-morpholinoquinazolin-6-yl)phenyl)propane-1-sulfonamide], the IC50 in the assay with pERK in A375 cells is 1 to 100 nM; on mTOR kinase it was 1 to 100 nM; at B-RAFV600E it was 1 to 100 nM; in the assay on RKO cells, 100 to 1000 nM; in the assay on A375 cells, 1 to 100 nM.
Consider `CCCS(=O)(=O)Nc1cccc(-c2cc(OC)c3nc(-c4cnc(N)c(C)c4)nc(N4CCOCC4)c3c2)c1F` [Example 26, N-(3-(2-(6-amino-5-methylpyridin-3-yl)-8-methoxy-4-morpholinoquinazolin-6-yl)-2-fluorophenyl)propane-1-sulfonamide], for which the IC50 against PI3Kα, with pERK in A375 cells, at B-RAFV600E and with A375 cells was 100 to 1000 nM in each case.
Turning to `CCCS(=O)(=O)Nc1cccc(-c2cc(C)c3nc(-c4ccc(N)nc4)nc(N4CCOCC4)c3c2)c1F` [Example 8, N-(3-(2-(6-aminopyridin-3-yl)-8-methyl-4-morpholinoquinazolin-6-yl)-2-fluorophenyl)propane-1-sulfonamide], the IC50 against PI3Kα, in the assay on pERK in A375 cells, at B-RAFV600E, with RKO cells and with A375 cells was 100 to 1000 nM in each case.
Consider `C[C@@H]1COCCN1c1nc(-c2ccc(N)nc2)nc2c(OC3CCCC3)cc(-c3cccc(NS(=O)(=O)CCCF)c3F)cc12` [Example 62, (R)-N-(3-(2-(6-aminopyridin-3-yl)-8-(cyclopentyloxy)-4-(3-methylmorpholino)quinazolin-6-yl)-2-fluorophenyl)-3-fluoropropane-1-sulfonamide], for which the IC50 in the assay with pERK in A375 cells lay in the range of 1 to 100 nM; at mTOR kinase, 1 to 100 nM; at B-RAFV600E, 1 to 100 nM; in the assay on RKO cells, 100 to 1000 nM; with A375 cells, 1 to 100 nM.
For `Cc1cc(-c2cccc(NS(=O)(=O)CCCF)c2F)cc2c(N3CCOCC3)nc(-c3cccc4[nH]ncc34)nc12` [Example 118, N-(3-(2-(1H-indazol-4-yl)-8-methyl-4-morpholinoquinazolin-6-yl)-2-fluorophenyl)-3-fluoropropane-1-sulfonamide], the IC50 against mTOR kinase fell in the range of 100 to 1000 nM; on B-RAFV600E it was 1 to 100 nM; in the assay on RKO cells it was 1000 to 10000 nM; with A375 cells, 100 to 1000 nM.
For the compound `CNc1ncc(-c2nc(N3CCOCC3)c3cc(-c4cccc(NS(=O)(=O)CCCF)c4F)cc(OC)c3n2)cn1` [Example 51, 3-fluoro-N-(2-fluoro-3-(8-methoxy-2-(2-(methylamino)pyrimidin-5-yl)-4-morphoIinoquinazolin-6-yl)phenyl)propane-1-sulfonamide], the IC50 in the assay with pERK in A375 cells lay within 1 to 100 nM; against mTOR kinase, 1 to 100 nM; at B-RAFV600E, 1 to 100 nM; in the assay on RKO cells it was 100 to 1000 nM; in the assay on A375 cells it was 1 to 100 nM.
Consider `COc1cc(-c2cccc(NS(=O)(=O)CCCF)c2F)cc2c(N3CCOCC3)nc(-c3cccc4[nH]ncc34)nc12` [Example 37, N-(3-(2-(1H-indazol-4-yl)-8-methoxy-4-morpholinoquinazolin-6-yl)-2-fluorophenyl)-3-fluoropropane-1-sulfonamide], for which the IC50 on PI3Kα fell in the range of 100 to 1000 nM; in the assay on pERK in A375 cells, 1 to 100 nM; on B-RAFV600E, 1 to 100 nM; in the assay on RKO cells, 1000 to 10000 nM; in the assay on A375 cells, 100 to 1000 nM.

Source of the values: patent US9499495B2, “Quinazolines and azaquinazolines as dual inhibitors of RAS/RAF/MEK/ERK and PI3K/AKT/PTEN/mTOR pathways” (Asana Biosciences, LLC, priority 2013, dated 2016).
